Results as given in ChEMBL document CHEMBL1201862, “PubChem BioAssay data set” (2004).
Values joined by “and” are separate entries in the source; they are usually repeats but may differ in a detail not shown here. Equal values may be shown once. Active and inactive are the calls of the source.

How the values were obtained:
Tumor necrosis factor = Tumor necrosis factor (Homo sapiens, UniProt P01375); experiment: TNFa-triggered NF-kB activation inhibitors, SAR follow-up, cell-based, revised (AID 2337); format: functional
Sequence of Tumor necrosis factor (P01375 whole entry): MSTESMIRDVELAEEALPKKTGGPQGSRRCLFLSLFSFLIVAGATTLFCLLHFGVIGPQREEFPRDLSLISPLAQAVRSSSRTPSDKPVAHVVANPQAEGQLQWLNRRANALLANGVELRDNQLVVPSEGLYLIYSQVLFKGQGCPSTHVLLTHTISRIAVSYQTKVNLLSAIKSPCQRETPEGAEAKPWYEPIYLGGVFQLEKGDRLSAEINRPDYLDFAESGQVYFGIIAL

Interleukin-8 [1] = target: T1, Interleukin-8 (Homo sapiens, UniProt P10145); experiment: SAR analysis of Tumor necrosis factor alpha (TNF-alpha) induced IL-8 secretion in MCF-7/NOD1 cells - Set 2. [Related pubchem assays (depositor defined):AID1575, AID2250, AID2260]; format: functional, cell-based
T1 sequence (P10145 whole entry): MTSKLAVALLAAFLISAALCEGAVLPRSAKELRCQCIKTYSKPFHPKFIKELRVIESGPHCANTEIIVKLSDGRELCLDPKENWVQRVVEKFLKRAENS

Interleukin-8 [2] = target: T1, Interleukin-8; experiment: SAR analysis of GM-Tri-DAP induced IL-8 secretion in MCF-7/NOD1 cells - Set 2. [Related pubchem assays (depositor defined):AID1575, AID1578, AID2333]; format: functional, cell-based
[3] = target: Potassium voltage-gated channel subfamily KQT member 2 (Rattus norvegicus, UniProt O88943); experiment: retigabine-insensitive KCNQ2 potentiators, concentration-response, dose response, cell-based, retigabine-insensitive compounds (AID 2654); format: functional
Sequence of Potassium voltage-gated channel subfamily KQT member 2 (O88943 whole entry): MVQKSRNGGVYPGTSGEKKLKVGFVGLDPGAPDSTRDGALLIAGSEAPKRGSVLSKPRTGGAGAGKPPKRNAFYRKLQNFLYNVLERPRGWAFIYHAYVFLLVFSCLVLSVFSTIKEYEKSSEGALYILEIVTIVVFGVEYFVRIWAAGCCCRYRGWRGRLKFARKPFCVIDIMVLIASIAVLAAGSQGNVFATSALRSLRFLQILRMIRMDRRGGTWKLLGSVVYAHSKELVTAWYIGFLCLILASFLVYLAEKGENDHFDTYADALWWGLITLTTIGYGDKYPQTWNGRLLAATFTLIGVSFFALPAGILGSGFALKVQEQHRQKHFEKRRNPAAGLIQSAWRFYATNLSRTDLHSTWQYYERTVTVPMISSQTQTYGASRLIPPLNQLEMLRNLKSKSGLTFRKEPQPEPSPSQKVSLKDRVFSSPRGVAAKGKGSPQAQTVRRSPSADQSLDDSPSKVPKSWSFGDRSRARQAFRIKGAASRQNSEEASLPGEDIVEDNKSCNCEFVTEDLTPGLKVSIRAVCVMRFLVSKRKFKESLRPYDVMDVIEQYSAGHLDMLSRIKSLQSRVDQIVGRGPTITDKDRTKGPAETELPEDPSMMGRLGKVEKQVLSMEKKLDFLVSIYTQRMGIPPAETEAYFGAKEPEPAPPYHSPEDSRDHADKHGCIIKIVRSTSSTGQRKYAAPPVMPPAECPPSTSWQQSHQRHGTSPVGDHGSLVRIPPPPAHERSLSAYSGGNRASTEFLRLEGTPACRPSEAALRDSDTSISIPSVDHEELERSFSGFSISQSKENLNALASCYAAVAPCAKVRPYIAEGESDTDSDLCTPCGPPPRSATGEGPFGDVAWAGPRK

[4] = target: Ras and Rab interactor 1/Tyrosine-protein kinase ABL1 (Homo sapiens, UniProt P00519+Q13671); format: functional;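 note: biochemical TR-FRET dose-response test measuring inhibition of binding between Rin1 and Abl proteins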
ORF 73 = ORF 73 (Human herpesvirus 8, UniProt O40947); experiment: inhibitors of C-LANA binding to LBS DNA, dose response, biochemical, fluorescence polarization, cherry-picked samples (AID 504725); parameters: species or system Human gammaherpesvirus 8;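 note: fluorescence polarization of a labeled DNA duplex reporting LANA DNA binding; potency is for inhibitors that block LANA binding to the DNA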
[5] = target: T2, Carboxy-terminal domain RNA polymerase II polypeptide A small phosphatase 1 (Homo sapiens, UniProt Q9GZU7); experiment: inhibitors of CTDSP1, concentration-response testing, biochemical assay, absorbance-based, actives from ultra-high-throughput screening (AID 540297); format: functional
T2 sequence (Q9GZU7 whole entry): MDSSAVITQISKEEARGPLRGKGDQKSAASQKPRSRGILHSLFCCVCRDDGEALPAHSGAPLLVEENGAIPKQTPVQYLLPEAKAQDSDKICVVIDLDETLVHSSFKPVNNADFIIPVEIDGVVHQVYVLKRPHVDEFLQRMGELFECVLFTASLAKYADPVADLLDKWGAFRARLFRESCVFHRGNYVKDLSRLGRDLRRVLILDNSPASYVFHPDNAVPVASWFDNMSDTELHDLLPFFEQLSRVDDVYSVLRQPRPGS

[6] = target: T3, DNA dC->dU-editing enzyme APOBEC-3G (Homo sapiens, UniProt Q9HC16); format: functional
T3 sequence (Q9HC16 whole entry): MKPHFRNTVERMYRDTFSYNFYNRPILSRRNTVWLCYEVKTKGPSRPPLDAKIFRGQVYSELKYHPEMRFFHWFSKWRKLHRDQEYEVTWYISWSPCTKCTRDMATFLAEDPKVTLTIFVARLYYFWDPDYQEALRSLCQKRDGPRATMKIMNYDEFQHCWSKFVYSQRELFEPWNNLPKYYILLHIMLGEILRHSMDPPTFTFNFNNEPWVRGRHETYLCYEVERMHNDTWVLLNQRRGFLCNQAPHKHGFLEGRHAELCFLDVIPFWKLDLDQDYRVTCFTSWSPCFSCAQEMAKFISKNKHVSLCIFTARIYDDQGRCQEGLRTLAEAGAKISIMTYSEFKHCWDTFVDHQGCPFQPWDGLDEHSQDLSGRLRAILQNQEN

[7] = target: T4, DNA dC->dU-editing enzyme APOBEC-3A (Homo sapiens, UniProt P31941); experiment: Dose Response confirmation of small molecule APOBEC3A DNA Deaminase Inhibitors via a fluorescence-based single-stranded DNA deaminase assay. [Related pubchem assays (depositor defined):AID493011, AID493024]; format: functional
T4 sequence (P31941 whole entry): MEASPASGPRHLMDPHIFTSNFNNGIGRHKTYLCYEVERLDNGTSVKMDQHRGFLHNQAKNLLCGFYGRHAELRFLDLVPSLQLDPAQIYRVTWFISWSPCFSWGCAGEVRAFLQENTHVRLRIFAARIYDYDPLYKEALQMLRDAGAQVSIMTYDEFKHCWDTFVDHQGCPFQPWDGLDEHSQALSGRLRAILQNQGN

[8] = target: Eukaryotic translation initiation factor 4H (Homo sapiens, UniProt Q15056); experiment: human eIF4H binding inhibitors, primary screen, translation initiation inhibitor project, biochemical, uHTS, fluorescence polarization (AID 2012)
[9] = target: Polyadenylate-binding protein 1 (Homo sapiens, UniProt P11940); experiment: PABP poly(A) RNA binding inhibitors, primary screen, biochemical, fluorescence polarization, uHTS (AID 2014)
[10] = target: G-protein coupled receptor 55 (Homo sapiens, UniProt Q9Y2T6); experiment: GPR55 agonists via beta-arrestin recruitment, primary screen, imaging, U2OS cells, beta-arrestin-GFP redistribution (AID 1961); format: functional
[11] = cytotoxicity in HPDE-C7 cells, cell-based, fluorescence, HTS (AID 430); format: functional; conditions: Homo sapiens
[12] = cytotoxicity in KRAS-transformed pancreatic duct cells, primary screen, cell-based, fluorescence, HTS (AID 431); format: functional; conditions: Homo sapiens;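 note: cell line used: HPDE-C7K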
[13] = target: Acyl-homoserine lactone acylase PvdQ (Pseudomonas aeruginosa (strain LESB58), UniProt Q9I194); experiment: P. aeruginosa PvdQ acylase inhibitors, dose response, biochemical, fluorescence, plate reader and imaging, cherry-picks (AID 493231)
Cytochrome P450 2C9 = Cytochrome P450 2C9 (Homo sapiens, UniProt P11712); conditions: Potency
Cytochrome P450 2D6 = Cytochrome P450 2D6 (Homo sapiens, UniProt P10635); experiment: qHTS Assay for Inhibitors and Substrates of Cytochrome P450 2D6. [Related pubchem assays: 410 ]; format: ADME; conditions: read-out: Potency
HeLa = experiment: HeLa cell cytotoxicity, dose response, cytotoxicity control, 24 h, cherry-picked samples (AID 504726); format: functional, cell-based; conditions: Homo sapiens;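 note: potency for cytotoxicity as loss of luminescence signal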
[14] = inhibitors of intracellular T. cruzi replication, confirmation, NIH3T3 host cells, beta-gal luminescence (AID 2044); format: functional, cell-based;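 note: intracellular parasites grown in NIH/3T3 mouse fibroblasts as host cells; luminescent beta-galactosidase reporter signal from transgenic T. cruzi replicating inside host cells; inhibitors lower the luminescence signal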
[15] = system: Streptococcus sp. 'group A'; experiment: growth inhibition of control SK(-) GAS strain, dose response, counter-screen for streptokinase expression inhibitor project, luminescence, kanamycin, BacTiterGlo, confirmation (AID 1900); format: functional, organism-based
[16] = HepG2 cell cytotoxicity, dose response, cytotoxicity control for non-replicating M. tuberculosis project (AID 489018); format: functional; conditions: Mycobacterium tuberculosis
[17] = Luminescence-based dose response cell-based high throughput screening assay for cytotoxic compounds using the IEC-6 intestinal epithelial cell line. [Related pubchem assays: 1858 (Summary AID.), 1825 (Counterscreen.), 1907 (Confirmation screen.)]; format: functional
[18] = THP-1 cell cytotoxicity, dose response, cytotoxicity control for non-replicating M. tuberculosis project (AID 489025); format: functional
cells [19] = experiment: cells
[20] = cytotoxicity toward NIH3T3 fibroblasts, dose response, counter-screen, cell-based, ATP luminescence, mouse fibroblasts (AID 2010); format: functional;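 note: cells exposed to compound for about 90 hours before reading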
INS1 = experiment: beta cell apoptosis inhibitors, cytokine rescue, dose response, luminescence, retest (AID 449756); format: functional, cell-based; conditions: Rattus norvegicus;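 note: cell death triggered by IL-1 beta plus TNF-alpha plus IFN-gamma mixture; protective hits raise ATP signal compared with cytokine alone wells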
Streptococcus = experiment: Group A Streptococcus viability loss, dose response, counter-screen for streptokinase expression inhibitor project, luminescence, BacTiterGlo (AID 1915); format: functional, organism-based;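 note: potency for reduction of bacterial viability or growth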
cells [21] = format: functional
[22] = Vero E6 cell cytotoxicity, dose response, cytotoxicity control for non-replicating M. tuberculosis project, secondary assay (AID 492998); format: functional, VeroE6; conditions: Vero C1008
[23] = growth suppression of PTEN-null colon cells, dose response, cell-based, HCT116 PTEN knockout (AID 1047); format: functional;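 note: HCT116 colon tumor cells with PTEN knocked out; cells exposed to compound for 60 hours before readout; potency for loss of cell viability measured by luminescence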
[24] = target: T5, Voltage-gated N-type calcium channel alpha-1B subunit/Amyloid beta A4 precursor protein-binding family A member 1 (Homo sapiens, UniProt Q00975+Q02410); format: protein assay
T5 sequence (Q00975 whole entry): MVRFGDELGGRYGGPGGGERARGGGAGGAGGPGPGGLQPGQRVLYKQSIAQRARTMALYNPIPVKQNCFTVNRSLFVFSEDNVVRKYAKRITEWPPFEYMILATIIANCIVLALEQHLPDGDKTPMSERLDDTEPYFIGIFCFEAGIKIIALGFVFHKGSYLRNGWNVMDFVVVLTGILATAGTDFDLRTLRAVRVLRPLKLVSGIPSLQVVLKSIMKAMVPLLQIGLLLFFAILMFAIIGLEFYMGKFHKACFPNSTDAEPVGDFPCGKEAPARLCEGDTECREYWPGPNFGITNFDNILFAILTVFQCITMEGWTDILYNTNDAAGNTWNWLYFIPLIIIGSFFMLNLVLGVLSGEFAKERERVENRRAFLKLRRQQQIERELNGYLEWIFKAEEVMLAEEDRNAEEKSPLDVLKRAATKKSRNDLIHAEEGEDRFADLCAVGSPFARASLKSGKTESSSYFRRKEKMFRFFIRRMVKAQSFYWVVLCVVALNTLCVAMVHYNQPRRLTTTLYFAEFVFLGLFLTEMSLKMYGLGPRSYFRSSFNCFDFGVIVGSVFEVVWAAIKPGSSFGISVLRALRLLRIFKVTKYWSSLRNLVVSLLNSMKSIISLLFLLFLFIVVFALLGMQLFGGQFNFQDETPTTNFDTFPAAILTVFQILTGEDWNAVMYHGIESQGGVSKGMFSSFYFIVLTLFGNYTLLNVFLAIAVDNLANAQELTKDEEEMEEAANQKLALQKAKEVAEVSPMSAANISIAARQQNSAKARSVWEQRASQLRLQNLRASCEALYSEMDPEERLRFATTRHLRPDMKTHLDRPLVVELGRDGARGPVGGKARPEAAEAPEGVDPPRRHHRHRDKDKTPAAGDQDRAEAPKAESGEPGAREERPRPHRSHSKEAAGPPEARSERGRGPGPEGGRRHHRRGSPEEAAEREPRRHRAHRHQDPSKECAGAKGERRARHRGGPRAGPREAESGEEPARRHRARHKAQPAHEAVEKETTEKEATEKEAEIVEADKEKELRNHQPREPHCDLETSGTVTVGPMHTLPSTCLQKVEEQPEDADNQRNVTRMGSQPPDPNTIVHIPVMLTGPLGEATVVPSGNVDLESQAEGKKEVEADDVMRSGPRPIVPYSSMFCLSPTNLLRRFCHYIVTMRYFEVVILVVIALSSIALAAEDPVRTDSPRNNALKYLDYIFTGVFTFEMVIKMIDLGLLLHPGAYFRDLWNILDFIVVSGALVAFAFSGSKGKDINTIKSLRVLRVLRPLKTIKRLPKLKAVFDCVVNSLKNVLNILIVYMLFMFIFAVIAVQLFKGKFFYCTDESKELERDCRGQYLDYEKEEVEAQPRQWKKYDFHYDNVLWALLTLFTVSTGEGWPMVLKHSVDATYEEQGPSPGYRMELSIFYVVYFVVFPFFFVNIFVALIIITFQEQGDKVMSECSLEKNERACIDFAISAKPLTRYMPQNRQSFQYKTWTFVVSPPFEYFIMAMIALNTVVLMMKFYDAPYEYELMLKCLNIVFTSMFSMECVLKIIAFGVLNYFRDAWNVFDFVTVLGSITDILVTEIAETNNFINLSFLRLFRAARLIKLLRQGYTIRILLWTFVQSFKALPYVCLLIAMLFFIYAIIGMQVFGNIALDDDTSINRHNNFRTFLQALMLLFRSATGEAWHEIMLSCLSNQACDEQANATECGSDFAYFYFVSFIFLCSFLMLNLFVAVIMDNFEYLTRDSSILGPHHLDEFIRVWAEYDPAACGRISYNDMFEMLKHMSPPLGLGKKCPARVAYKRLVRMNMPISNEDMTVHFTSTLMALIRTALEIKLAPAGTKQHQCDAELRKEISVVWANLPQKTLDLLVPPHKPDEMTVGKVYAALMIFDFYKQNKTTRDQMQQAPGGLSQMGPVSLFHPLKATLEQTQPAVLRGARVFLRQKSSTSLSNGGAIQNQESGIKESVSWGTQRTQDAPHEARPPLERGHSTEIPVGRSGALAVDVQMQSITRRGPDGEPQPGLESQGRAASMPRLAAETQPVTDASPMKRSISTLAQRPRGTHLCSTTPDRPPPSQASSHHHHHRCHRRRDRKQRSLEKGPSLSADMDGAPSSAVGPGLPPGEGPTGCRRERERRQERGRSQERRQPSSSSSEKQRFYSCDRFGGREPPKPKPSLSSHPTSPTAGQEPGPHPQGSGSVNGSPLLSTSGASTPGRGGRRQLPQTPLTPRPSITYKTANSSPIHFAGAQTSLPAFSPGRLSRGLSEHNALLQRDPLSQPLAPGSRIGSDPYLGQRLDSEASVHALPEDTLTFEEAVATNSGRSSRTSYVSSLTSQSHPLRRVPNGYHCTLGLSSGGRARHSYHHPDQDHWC
T5 sequence (Q02410 whole entry): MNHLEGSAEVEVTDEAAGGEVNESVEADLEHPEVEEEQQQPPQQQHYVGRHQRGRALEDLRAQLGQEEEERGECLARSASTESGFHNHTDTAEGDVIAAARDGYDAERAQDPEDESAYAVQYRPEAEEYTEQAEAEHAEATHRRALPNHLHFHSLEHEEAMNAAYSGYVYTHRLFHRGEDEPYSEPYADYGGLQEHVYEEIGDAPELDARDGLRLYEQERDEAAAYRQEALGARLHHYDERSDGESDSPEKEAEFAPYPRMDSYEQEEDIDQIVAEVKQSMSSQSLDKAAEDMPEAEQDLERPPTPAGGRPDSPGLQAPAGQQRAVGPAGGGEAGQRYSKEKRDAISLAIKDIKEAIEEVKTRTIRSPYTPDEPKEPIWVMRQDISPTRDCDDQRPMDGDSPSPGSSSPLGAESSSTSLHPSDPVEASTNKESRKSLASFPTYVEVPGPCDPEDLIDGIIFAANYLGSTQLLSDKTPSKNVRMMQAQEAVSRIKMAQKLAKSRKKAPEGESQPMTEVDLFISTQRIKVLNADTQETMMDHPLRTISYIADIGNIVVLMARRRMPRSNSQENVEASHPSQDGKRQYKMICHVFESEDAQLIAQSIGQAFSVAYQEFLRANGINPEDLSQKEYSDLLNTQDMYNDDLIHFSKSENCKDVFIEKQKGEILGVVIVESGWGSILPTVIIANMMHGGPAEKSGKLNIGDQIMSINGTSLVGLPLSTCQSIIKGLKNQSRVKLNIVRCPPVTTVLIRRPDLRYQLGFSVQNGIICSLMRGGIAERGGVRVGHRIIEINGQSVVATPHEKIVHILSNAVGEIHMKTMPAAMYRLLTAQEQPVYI

Vasopressin V1a receptor = Vasopressin V1a receptor (Homo sapiens, UniProt P37288); experiment: Counterscreen for Oxytocin Receptor (OXTR) agonists: Fluorescence-based cell-based high throughput dose response assay to identify agonists of the vasopressin 1 receptor (V1R). [Related pubchem assays: 2435 (Primary screen (OXTR agonists in singlicate)), 434991 (Counterscreen (V1R agonists in triplicate)), 2482 (Summary (OXTR agonists)) …; format: functional
[25] = target: T4, DNA dC->dU-editing enzyme APOBEC-3A; experiment: APOBEC3A DNA deaminase inhibitors, dose response, biochemical (AID 504722); format: functional
[26] = target: T3, DNA dC->dU-editing enzyme APOBEC-3G; experiment: Dose Response confirmation of small molecule APOBEC3G DNA Deaminase Inhibitors via a fluorescence-based single-stranded DNA deaminase assay. [Related pubchem assays (depositor defined):AID493012, AID493028]; format: functional
[27] = target: Eukaryotic translation initiation factor 4E (Mus musculus, UniProt P63073); experiment: eIF4E–eIF4G protein interaction inhibitors, dose response, biochemical, TR-FRET (AID 855); format: functional;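 note: potency for disrupting eIF4E binding to eIF4GI seen as loss of FRET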
Sequence of Eukaryotic translation initiation factor 4E (P63073 whole entry): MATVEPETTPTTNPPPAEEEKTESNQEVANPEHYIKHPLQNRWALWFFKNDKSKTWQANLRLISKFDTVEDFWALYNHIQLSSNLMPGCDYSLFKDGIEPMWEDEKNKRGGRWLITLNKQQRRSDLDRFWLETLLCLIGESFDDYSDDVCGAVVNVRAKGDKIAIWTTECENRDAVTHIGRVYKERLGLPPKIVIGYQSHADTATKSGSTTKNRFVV

[28] = target: T5, Voltage-gated N-type calcium channel alpha-1B subunit/Amyloid beta A4 precursor protein-binding family A member 1; format: protein assay; remark: listed apart in the source
Oxytocin receptor = Oxytocin receptor (Homo sapiens, UniProt P30559); experiment: Fluorescence-based cell-based high throughput dose response assay for agonists of the Oxytocin Receptor (OXTR). [Related pubchem assays: 2435 (Primary screen (OXTR agonists in singlicate)), 434991 (Counterscreen (V1R agonists in triplicate)), 2482 (Summary (OXTR agonists)), 434963 (Confirmation screen (OXTR agonists in triplicate))]; format: functional

Nc1nc2ccccc2n1Cc1ccc(Cl)cc1
IC50 (Tumor necrosis factor): 8.92 µM (active) and > 20 µM (inactive) | IC50 (Interleukin-8 [1]): 19.8 µM (active) | IC50 (Interleukin-8 [2]): 12.1 µM (active)

CCC(C)c1ccc(NC(=S)Nc2cccnc2)cc1 (centres undefined)
EC50 [3]: 12.6 µM (active)

COc1cc(O)c(C(C)=O)c(CC(=O)O)c1
IC50 [4]: 15.6 µM (inactive) | AC50 (ORF 73): 46.3 µM (active) | IC50 [5]: 3.5 µM (active)

Cc1nc2ccc(NC(=O)C3COc4ccccc4O3)cc2s1 (centres undefined)
IC50 [6]: 6.02 µM (active) | IC50 [7]: 6.32 µM (active) | IC50 [8]: > 100 µM (inactive) | IC50 [9]: 11.1 µM (active)

Cc1ccc(NC(=O)Nc2cccnc2)cc1F
EC50 [3]: 9.14 µM (active)

COc1ccc(C2(O)CC3CCC(C2)N3c2cc(C)nc(-c3ccccc3)n2)cc1 (centres undefined)
EC50 [10]: 7.35 µM (active) | EC50 [11]: > 20 µM (not active) | EC50 [12]: > 20 µM (not active)

Cc1ccc(C)c(S(=O)(=O)NC2CCSC2=O)c1 (centres undefined)
AC50 [13]: 3.22 µM (active)

CC(=O)[C@@H]1[C@H]2[C@@H](C(=O)[C@H]3OC[C@H]2O3)[C@@H]2C=Cc3ccccc3N12
AC50 (Cytochrome P450 2C9): 31.6 µM (inconclusive) | AC50 (Cytochrome P450 2D6): 39.8 µM (inconclusive)

COc1ccc(-c2cc(=O)c3ccc(O)cc3o2)cc1
AC50 (Cytochrome P450 2C9): 3.98 µM (inconclusive)

C/C(=N\Nc1nc2c(s1)CCCC2)c1ccc(Cl)cc1
AC50 (HeLa): 83.5 µM (active)

C/C(=N\NC(=O)c1ccc(Cl)cc1)c1ccccn1
EC50 [14]: < 0.1 µM (active) | EC50 [15]: 2.33 µM (active) | CC50 [16]: 6.87 µM (active) | IC50 [17]: 0.546 µM (active) | CC50 [18]: 0.551 µM (active) | EC50 (cells [19]): 0.064 µM (active) | EC50 [20]: 1.04 µM (active) | AC50 (INS1): 0.34 µM (active) | EC50 (Streptococcus): 7.47 µM (active) | IC50 (cells [21]): 0.8 µM (active) | CC50 [22]: 1.52 µM (active)

Cc1cc(Cl)ccc1/N=c1\ssnc1Cl
EC50 [23]: 49 µM (active) | IC50 [24]: 15.4 µM (active) | EC50 (Vasopressin V1a receptor): > 29.9 µM (not active) | IC50 [25]: > 100 µM (inactive) | IC50 [26]: 11.9 µM (active) | IC50 [27]: > 64 µM (inactive) | IC50 [28]: 2.3 µM (active) | EC50 (Oxytocin receptor): > 29.9 µM (not active)
